One test addresses CDK19 (human) (UniProt Q9BWU1). Briefly: Flashplate.
For a further test, the target named is CLK4 (human) (UniProt Q9HAZ1). Briefly: Flashplate.
Another test concerns the target KDR (human) (UniProt P35968). Briefly: HTRF. In general terms: In TR-FRET formats the signal depends on donor and acceptor labels being close together.
The next test concerns the target CHEK2 (human) (UniProt O96017). Briefly: Flashplate.
The target of the next test is MARK3 (human) (UniProt P27448). Briefly: Flashplate.
The next test concerns the target SGK1 (human) (UniProt O00141). Briefly: Flashplate.
The target in another test is CDC7 (human) (UniProt O00311). Briefly: Flashplate.
CDC7 (human), sequence (O00311 whole entry, looked up): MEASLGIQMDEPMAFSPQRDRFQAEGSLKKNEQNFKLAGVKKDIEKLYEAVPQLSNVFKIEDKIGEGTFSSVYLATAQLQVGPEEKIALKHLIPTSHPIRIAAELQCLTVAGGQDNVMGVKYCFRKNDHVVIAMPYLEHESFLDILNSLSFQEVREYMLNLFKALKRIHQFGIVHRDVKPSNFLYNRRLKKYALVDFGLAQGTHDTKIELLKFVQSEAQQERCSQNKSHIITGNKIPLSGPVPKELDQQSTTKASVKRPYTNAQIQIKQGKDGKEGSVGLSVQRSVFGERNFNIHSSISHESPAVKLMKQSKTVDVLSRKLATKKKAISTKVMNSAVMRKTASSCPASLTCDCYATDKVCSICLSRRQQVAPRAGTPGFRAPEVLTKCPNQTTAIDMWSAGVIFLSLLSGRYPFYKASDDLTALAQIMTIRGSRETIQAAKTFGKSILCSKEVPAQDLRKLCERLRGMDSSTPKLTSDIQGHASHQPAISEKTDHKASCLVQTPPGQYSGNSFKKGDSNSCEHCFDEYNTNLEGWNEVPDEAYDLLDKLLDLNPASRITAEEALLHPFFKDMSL
Another test has as its target PLK3 (human) (UniProt Q9H4B4). Briefly: Flashplate.
For the next test, the target named is CDK5 (human) (UniProt Q00535). Briefly: Flashplate.
CDK5 (human), sequence (Q00535 whole entry, looked up): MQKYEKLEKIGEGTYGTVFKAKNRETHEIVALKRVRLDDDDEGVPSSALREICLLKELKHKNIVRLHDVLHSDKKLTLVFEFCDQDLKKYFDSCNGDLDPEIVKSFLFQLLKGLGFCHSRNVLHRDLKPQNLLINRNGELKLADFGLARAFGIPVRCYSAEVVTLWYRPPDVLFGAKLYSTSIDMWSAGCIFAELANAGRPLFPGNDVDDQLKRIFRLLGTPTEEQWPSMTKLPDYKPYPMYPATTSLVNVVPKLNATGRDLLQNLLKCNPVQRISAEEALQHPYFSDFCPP
A further test concerns the target DYRK1A (human) (UniProt Q13627). Briefly: Flashplate.

The term Ki denotes the equilibrium dissociation constant of an inhibitor or competing ligand from its target.

SGK1 (human), sequence (O00141 whole entry, looked up): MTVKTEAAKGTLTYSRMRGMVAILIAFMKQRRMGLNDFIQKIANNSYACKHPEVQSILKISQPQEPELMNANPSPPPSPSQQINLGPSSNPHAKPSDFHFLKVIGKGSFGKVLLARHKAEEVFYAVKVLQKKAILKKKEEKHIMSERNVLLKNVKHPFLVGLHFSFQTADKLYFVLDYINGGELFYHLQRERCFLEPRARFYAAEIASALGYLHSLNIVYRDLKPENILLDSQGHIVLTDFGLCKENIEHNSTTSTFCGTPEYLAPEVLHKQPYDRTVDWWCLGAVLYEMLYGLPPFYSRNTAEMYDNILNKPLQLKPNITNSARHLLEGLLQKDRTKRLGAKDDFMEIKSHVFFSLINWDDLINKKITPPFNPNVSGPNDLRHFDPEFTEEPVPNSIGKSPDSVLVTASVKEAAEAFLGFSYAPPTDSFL
CDK19 (human), sequence (Q9BWU1 whole entry, looked up): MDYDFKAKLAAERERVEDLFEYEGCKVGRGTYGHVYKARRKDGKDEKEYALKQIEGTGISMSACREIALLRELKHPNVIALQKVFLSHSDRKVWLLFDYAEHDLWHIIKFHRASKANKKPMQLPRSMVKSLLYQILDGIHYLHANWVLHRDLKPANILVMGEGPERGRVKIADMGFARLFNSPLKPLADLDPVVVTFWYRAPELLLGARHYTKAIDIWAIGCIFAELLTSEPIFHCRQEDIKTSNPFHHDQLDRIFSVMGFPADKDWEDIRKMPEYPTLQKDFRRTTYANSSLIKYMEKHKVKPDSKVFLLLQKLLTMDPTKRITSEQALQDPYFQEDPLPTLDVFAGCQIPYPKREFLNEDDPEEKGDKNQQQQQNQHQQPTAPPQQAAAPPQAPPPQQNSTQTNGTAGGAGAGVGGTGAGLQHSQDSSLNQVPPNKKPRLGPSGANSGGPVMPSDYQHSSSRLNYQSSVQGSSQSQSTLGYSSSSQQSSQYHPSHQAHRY
KDR (human), sequence (P35968 whole entry, looked up): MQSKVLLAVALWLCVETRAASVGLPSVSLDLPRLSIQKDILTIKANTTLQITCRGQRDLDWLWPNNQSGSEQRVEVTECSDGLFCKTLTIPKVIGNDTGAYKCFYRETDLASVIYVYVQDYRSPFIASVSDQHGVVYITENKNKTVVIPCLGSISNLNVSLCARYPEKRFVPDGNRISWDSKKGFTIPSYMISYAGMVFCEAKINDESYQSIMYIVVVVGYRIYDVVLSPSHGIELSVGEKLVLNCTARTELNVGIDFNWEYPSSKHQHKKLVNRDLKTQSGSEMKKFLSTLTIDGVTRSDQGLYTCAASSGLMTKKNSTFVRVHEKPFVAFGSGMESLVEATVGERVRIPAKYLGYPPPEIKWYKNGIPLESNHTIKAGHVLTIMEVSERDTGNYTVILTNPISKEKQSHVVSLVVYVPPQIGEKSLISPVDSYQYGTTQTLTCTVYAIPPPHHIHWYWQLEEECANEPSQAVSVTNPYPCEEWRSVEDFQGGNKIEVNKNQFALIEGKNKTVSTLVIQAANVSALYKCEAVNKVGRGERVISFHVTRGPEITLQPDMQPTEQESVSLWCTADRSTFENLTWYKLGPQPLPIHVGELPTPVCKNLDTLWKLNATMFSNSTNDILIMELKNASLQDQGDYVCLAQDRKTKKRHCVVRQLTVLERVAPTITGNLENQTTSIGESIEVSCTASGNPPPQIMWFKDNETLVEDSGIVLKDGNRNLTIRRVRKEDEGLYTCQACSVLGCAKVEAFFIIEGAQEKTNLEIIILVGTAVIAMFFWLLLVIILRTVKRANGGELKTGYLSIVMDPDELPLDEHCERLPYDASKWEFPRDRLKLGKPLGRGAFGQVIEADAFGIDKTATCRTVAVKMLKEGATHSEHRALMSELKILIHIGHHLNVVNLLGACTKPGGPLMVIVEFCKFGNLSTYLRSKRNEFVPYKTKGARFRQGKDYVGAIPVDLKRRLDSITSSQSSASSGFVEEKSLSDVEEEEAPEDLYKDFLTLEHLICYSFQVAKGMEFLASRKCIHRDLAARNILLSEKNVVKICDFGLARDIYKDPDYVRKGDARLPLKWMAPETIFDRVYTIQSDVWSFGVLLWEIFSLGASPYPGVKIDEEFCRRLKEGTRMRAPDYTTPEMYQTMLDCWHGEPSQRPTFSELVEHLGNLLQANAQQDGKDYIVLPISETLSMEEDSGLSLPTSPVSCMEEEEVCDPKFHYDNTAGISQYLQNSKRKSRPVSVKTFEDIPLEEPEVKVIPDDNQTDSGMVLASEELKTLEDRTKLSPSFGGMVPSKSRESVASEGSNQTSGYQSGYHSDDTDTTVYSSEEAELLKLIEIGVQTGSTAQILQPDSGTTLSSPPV
PLK3 (human), sequence (Q9H4B4 whole entry, looked up): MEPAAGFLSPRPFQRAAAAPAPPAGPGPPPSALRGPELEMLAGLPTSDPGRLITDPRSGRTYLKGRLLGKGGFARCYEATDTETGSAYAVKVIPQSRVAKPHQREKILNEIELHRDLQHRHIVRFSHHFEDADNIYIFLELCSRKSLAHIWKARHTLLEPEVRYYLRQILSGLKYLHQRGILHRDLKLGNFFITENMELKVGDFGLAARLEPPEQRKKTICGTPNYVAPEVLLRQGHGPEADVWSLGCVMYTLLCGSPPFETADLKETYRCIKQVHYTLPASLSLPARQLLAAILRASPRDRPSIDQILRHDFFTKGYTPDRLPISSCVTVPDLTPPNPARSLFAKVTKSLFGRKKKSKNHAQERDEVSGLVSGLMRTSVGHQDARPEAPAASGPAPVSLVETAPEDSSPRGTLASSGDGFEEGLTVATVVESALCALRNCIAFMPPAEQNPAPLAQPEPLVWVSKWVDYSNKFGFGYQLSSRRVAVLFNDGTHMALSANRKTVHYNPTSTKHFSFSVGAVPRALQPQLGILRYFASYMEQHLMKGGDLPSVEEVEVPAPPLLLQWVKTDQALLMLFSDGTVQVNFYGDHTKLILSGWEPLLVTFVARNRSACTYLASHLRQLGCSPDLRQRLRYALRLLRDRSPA
CHEK2 (human), sequence (O96017 whole entry, looked up): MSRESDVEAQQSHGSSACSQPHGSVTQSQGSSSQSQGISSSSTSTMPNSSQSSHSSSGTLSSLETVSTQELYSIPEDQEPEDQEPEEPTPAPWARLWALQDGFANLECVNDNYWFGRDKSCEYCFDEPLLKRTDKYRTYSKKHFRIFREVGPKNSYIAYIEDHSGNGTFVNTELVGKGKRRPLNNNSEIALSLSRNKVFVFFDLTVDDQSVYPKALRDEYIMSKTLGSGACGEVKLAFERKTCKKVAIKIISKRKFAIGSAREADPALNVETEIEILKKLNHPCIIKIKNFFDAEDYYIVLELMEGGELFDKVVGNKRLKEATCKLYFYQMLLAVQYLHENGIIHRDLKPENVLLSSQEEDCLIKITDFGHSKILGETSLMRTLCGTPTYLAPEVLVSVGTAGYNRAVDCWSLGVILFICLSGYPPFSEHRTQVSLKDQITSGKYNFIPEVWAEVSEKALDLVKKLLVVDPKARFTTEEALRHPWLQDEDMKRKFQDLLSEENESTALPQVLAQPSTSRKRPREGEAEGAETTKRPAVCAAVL
CLK4 (human), sequence (Q9HAZ1 whole entry, looked up): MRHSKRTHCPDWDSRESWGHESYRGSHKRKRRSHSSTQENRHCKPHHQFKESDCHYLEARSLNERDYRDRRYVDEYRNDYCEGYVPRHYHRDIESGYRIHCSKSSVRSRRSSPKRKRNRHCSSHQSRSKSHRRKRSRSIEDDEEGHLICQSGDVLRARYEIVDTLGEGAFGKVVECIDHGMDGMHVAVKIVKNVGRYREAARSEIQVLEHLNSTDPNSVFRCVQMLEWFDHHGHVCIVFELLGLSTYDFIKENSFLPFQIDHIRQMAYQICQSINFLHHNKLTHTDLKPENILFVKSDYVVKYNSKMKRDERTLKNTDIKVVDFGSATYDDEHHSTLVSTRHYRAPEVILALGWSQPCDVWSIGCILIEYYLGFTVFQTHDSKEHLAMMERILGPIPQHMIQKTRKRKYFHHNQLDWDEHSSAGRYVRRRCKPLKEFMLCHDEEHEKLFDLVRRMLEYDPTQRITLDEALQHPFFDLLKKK

For `Oc1cc(Cc2nc3ccccc3[nH]2)nn1-c1ccccc1`, the inhibitory constant (Ki) on CDK19 (human) is above 100 µM; at CLK4 (human), 1.26 µM.

For the compound `CCn1c(=O)/c(=C\Nc2ccccc2)s/c1=C(/C#N)C(=O)O`, the Ki at KDR (human), on CHEK2 (human), on MARK3 (human) and at SGK1 (human) was 3.98 µM throughout. For the compound `O=[N+]([O-])c1ccc(-n2nc(-c3ccncc3)cc2O)cc1`, the Ki at CDC7 (human) is 0.501 µM; on CDK19 (human), above 100 µM. As to `COc1cc2ncn(-c3cc(OCc4ccccc4C(F)(F)F)c(C(N)=O)s3)c2cc1OC`, the Ki on PLK3 (human) was 0.00794 µM; at SGK1 (human), above 10 µM. With `CN(C)c1ccc(-c2c(-c3ccc4[nH]nc(N)c4c3)nnn2Cc2ccccc2)cc1`, on CDC7 (human), the Ki was determined as 0.000398 µM.

For the compound `O=C(O)c1ccccc1Nc1ncnc(Nc2ccc3cn[nH]c3c2)n1`, the Ki at CDK5 (human) and at DYRK1A (human) was 0.251 µM each time. As to `Cc1c(-c2cccc(OCc3ccccc3)c2)c2c(N)ncnc2n1[C@H]1CC[C@@H](N2CCCC2)CC1`, on SGK1 (human), the Ki is above 10 µM. For the compound `Cc1cc(O)ccc1-n1c2cc(Cl)ccc2c(=O)c2c(N)nc(N)nc21`, the Ki on SGK1 (human) is 5.01 µM. On to `c1ccc(CNc2nc(-c3ccc4[nH]ncc4c3)cs2)cc1`, for which, on SGK1 (human), the Ki was above 6.31 µM. At SGK1 (human), `N[C@H](COc1cncc(/C=C/c2ccncc2)c1)Cc1c[nH]c2ccccc12` registered a Ki of 7.94 µM.

In the case of `O=C(c1cc(Cc2n[nH]c(=O)c3c2CCCC3)ccc1F)N1CCN(c2ncccn2)CC1`, at SGK1 (human), the Ki is above 10 µM. As for `Cc1cc(Nc2ncc(F)c(N[C@H]3[C@@H](C(N)=O)[C@@H]4C=C[C@H]3C4)n2)ccc1N1CCN(C)CC1`, the Ki on SGK1 (human) came to 1.58 µM. The same measure, in the same setting: for `COc1cccc([C@@H](C)NC(=O)N2CC=C(c3c[nH]c4ncccc34)CC2)c1` the value was 0.02 µM; for `Nc1nccc2scc(-c3ccc(NC(=O)Nc4ccccc4C(F)(F)F)cc3)c12`, above 10 µM. Still for that read-out and setting: for `Cc1cc(-c2ccccc2)n(-c2cc(N/N=C/c3ccco3)ncn2)n1` the value was above 10 µM. In the case of `O=C1NN=Cc2c[nH]c3cc(NC(=O)[C@@H]4C[C@H]4c4ccccc4)cc1c23`, the inhibition constant (Ki) on SGK1 (human) worked out at 0.0398 µM. As for `CCCCn1c(NC(=O)c2cccc(C#N)c2)nc2cc(N(C)C(=O)C3CCCCC3)ccc21`, the Ki at SGK1 (human) was above 10 µM.

Turning to `Cc1nnc(-c2cc3c(Oc4ccc(C(F)(F)F)cc4)cncc3s2)o1`, the Ki on SGK1 (human) was above 10 µM. At SGK1 (human), `C[C@H](Nc1c(Nc2ccncc2)c(=O)c1=O)c1ccccc1` had a Ki above 10 µM. `CCCC(=O)Nc1n[nH]c2nc3ccccc3cc12` yielded a Ki at SGK1 (human) above 10 µM. In turn, `O=c1[nH]c2sc3c(c2c2nc(-c4ccncc4)nn12)CCCC3` yielded a Ki on SGK1 (human) above 10 µM. At SGK1 (human), `O=C(Nc1cnc2[nH]cc(-c3ccccc3)c2c1)c1c(F)cccc1F` registered a Ki of 0.631 µM.

`O=C(O)c1ccccc1Nc1ccnc(Nc2cccc(O)c2)n1` came in with a Ki on SGK1 (human) of 0.794 µM. At SGK1 (human), `Nc1ncnc2scc(-c3ccc(NC(=O)Nc4cc(C(F)(F)F)ccc4F)cc3)c12` yielded a Ki of 3.16 µM. Compound `Cc1ccc(NC(=O)Nc2ccc(NC(=O)c3csc4ncnc(N)c34)cc2)cc1` yielded a Ki at SGK1 (human) above 10 µM.
